In paper PMC4575187 (PLoS ONE, 2015):
In brackets after ≈: the same amount, converted by molar mass. Ends that are not written are not given here.

Experiments:
[1] = tested on: influenza A/Aichi/2/68 (H3N2); assay: microbe, parasite or virus in culture; conditions: H3N2, MDCK, read-out: H3N2 IC50
[2] = tested on: influenza A/Aichi/2/68 (H3N2); conditions: /Aichi/2/68, 48 h
MDCK cells [3] = conditions: 4 h
H5 antigen = assay: Hemagglutination inhibition (HI) assay; conditions: HA-FP-1 at 50 μg/mL, chicken erythrocytes 0.5% v/v, 1 h at room temperature
MDCK cells [4] = conditions: previous work; cited from earlier work
H5N1 pseudovirus = assay type: cell-based, influenza A virus
[5] = tested on: H5N1 pseudovirus (HA and NA of A/Thailand/Kan353/2004)

Compound	H3N2 IC50 [2]	CC50 with serum (MDCK cells [3])	CC50 without serum (MDCK cells [3])	other results
NC(=O)c1ncn([C@@H]2O[C@H](CO)[C@@H](O)[C@H]2O)n1 [Ribavirin]	–	–	–	IC50 [1]: 0.63 µg/mL (≈ 2.58 µM)
GLFGAIAGFIKGGWPGLVKG-NH2 [HA-FP-3]	34.91 ± 4.21 µg/mL	–	–	–
GLFGAIAGFIKKGWPGLVKG-NH2 [HA-FP-3-1]	27.57 ± 0.43 µg/mL	209.35 ± 0.21 µg/mL	174.53 ± 1.90 µg/mL	–
GLFGAIAGFIKNGWKGMIKG-NH2 [HA-FP-1]	5.90 ± 0.62 µg/mL	143.65 ± 0.63 µg/mL	111.70 ± 0.40 µg/mL	inhibition of agglutination of red blood cells (H5 antigen): unable to inhibit; CC50 against MDCK (MDCK cells [4]): 144.4 µg/mL; antiviral activity of HA-FP-1 in presence of HA-FP-O (H5N1 pseudovirus): completely abolished; IC50, infection of H5N1 influenza A pseudovirus on MDCK cells ([5]; pseudovirus (HA and NA of A/Thailand/Kan353/2004, 48 h)): 7.05 µg/mL
HA-FP-O: indigenous negatively charged fusion peptide of H3 hemagglutinin HA2, 20 residues (GLFGAIAGFIENGWEGMIDG)	–	–	–	inhibition of H5N1 pseudovirus infection (in words) [5]: a lower or no inhibition
